The source of these data is patent US20240344032A1, “ORGANOID PRODUCTION METHOD, CULTURE MEDIUM FOR ORGANOID PRODUCTION, ORGANOID, AND TEST SUBSTANCE EVALUATION METHOD” (JSR CORPORATION, priority 2021, published 2024).

Where no end group is shown, it is not given here. [ ]: non-standard residue; d: D form. The star is where a group is joined. X1 = 4‑(carboxymethyl)piperazine‑1‑carbonyl, O=C(O)CN1CCN(C(=O)*)CC1; 1Nal = N[C@@H](Cc1cccc2ccccc12)C(=O)O; Gly(NCH2CH2Ph) = O=C(O)CNCCc1ccccc1; 4Pal = N[C@@H](Cc1ccncc1)C(=O)O

Assay [1] deals with primary human hepatocytes. Put plainly: Culturing of human hepatocytes (proliferation of cells). The class given is cell-based. The procedure: Cryopreserved primary human hepatocytes in suspension (HEP187-S, manufactured by Biopredic International) were thawed in a water bath at 37° C., suspended in a 50 mL tube to which a serum-free culture medium (a culture medium obtained by adding HEPES, GLUTAMAX, and PENICILIN/STEREPTOMYCIN to Advanced DMEM/F12) had been added, and centrifuged. After the centrifugation, the supernatant was removed, and then the resultant product was suspended in a serum-free culture medium to prepare a human hepatocyte suspension. 20,000 human hepatocytes were collected from the suspension, mixed with 50 μL of Matrigel (registered trademark, manufactured by BD Biosciences), seeded in a 24-well tissue culture plate, and incubated at 37° C. for 10 minutes until Matrigel (registered trademark) was completely polymerized. After the polymerization, a culture medium (500 μL/well) prepared by adding each component to a basal medium to have the concentration shown in Table 4 below was overlaid, and culturing was carried out at 37° C. in the presence of 5% by volume of CO2. Advanced DMEM/F12 was used as a basal medium. The culture medium was exchanged every two or three days.
FIG. 2 is a graph showing a result of measuring the proliferation of cells.
FIG. 3 is a graph showing a result of measuring proliferation of cells in a case where the concentration of the #7401 peptide was set to be low.

Assay [2] concerns Human small intestinal epithelial cells (including human small intestinal stem cells). In words: Examination of EGFR signal and p38 MAPK signal: culture of small intestinal epithelial cells, bright field observation and Lgr5-tdTomato reporter assay. It counts as cell-based. On the procedure:
Upregulation of EGFR signal is known to induce cell proliferation. Therefore, the cell proliferative properties in a state where there was no EGFR signal were examined. […] Therefore, culturing was examined in the presence or absence of the p38 MAPK signal.
To the basal medium (Advanced DMEM/F12), each component was added to the concentration shown in Table 5 below to prepare a culture medium. Human small intestinal epithelial cells (including human small intestinal stem cells) were dispersed in Matrigel (registered trademark, manufactured by BD Biosciences). Subsequently, the dispersion product was seeded into each well of a 48-well tissue culture plate and incubated at 37° C. for 10 minutes to polymerize Matrigel (registered trademark).
Subsequently, 300 μL/well of a culture medium was overlaid, and culturing was carried out at 37° C. for 10 days in the presence of 5% by volume of CO2. The culture medium was exchanged every two or three days. Cells were cultured for 10 days in a culture medium containing EGF and cultured for 14 days in a culture medium containing no EGF. Thereafter, bright field observation with an optical microscope in the well and Lgr5-tdTomato reporter assay were carried out.
For orientation: A reporter such as luciferase makes a cellular process visible.

The test system of assay [3] is ALK5, VEGFR, RIPK2, MINK1, p38a MAPK, PKD1, and FGF-R1. The conditions noted are these: known from the literature; cited from earlier work.
For assay [4], the system named is p38 MAPK signaling pathway. The conditions noted are these: reported in Vogt J., et al., Cell Signal., 2011; cited from earlier work.
The test system of assay [5] is Human colon epithelial cells (including human colon stem cells). In words: Culturing of human colon epithelial cells (organoid formation). It counts as cell-based. The conditions noted are these: 0.5 nM, 5 nM, or 50 nM in culture medium, 7 days, optical microscope, FIG. 1. On the procedure: To a basal medium, each component was added to have the concentration shown in Table 3 below to prepare a culture medium. In Table 3, “CM” means conditioned medium. Advanced DMEM/F12 was used as a basal medium. As the peptide, peptide names #7401 and #2392 were used (hereinafter, each may be referred to as “#7401 peptide” and “#2392 peptide”). Regarding the #7401 peptide, a chemical formula is shown in Formula (2-1), and an amino acid sequence (SEQ ID NO: 3) is shown in Formula (2-2). In addition, regarding the #2392 peptide, a chemical formula is shown in Formula (3-1), and an amino acid sequence (SEQ ID NO: 4) is shown in Formula (3-2).
Human colon epithelial cells (including human colon stem cells) were dispersed in Matrigel (registered trademark, manufactured by BD Biosciences). Subsequently, the dispersion product was seeded into each well of a 48-well tissue culture plate and incubated at 37° C. for 10 minutes to polymerize Matrigel (registered trademark).
Subsequently, the culture medium (300 μL/well) prepared in Experimental Example 1 was overlaid on each well, and culturing was carried out at 37° C. for 7 days in the presence of 5% by volume of CO2. The culture medium was exchanged every two or three days.

Regarding `Cc1cccc(-c2nn(C(=S)Nc3ccccc3)cc2-c2ccnc3ccccc23)n1` [Peptide A83-01], in assay [1] (5 μM added to the culture medium, FIG. 2), the proliferation of cells result is “proliferation of cells is not observed after 35 days”. Moreover, in assay [2] (medium containing EGF (50 ng/mL), no SB202190, 500 nM and 5000 nM, 10 days, FIG. 5), the “cell proliferative properties and colony forming properties” value is “the cell proliferative properties and the colony forming properties were concentration-dependently inhibited”. The “stem cell properties (Lgr5-tdTomato reporter) versus 50 nM or 500 nM #7401 peptide” value in assay [2] (medium containing no EGF, no SB202190, 500 nM and 5000 nM, 14 days, FIG. 6) is listed as “higher stem cell properties”. Moreover, the “stem cell properties (Lgr5-tdTomato reporter), 5000 nM versus 500 nM” value in assay [2] (medium containing no EGF, no SB202190, 14 days, FIG. 6) was “higher stem cell properties”. For the same compound, the “action on ALK5 and off-target kinases/receptors” value in assay [3] is on record as “strongly act”. Besides, the “inhibition of p38 MAPK signaling pathway” value in assay [4] is on record as “inhibits p38 MAPK signaling pathway”.

For the compound “#2392 peptide: cyclic peptide, chemical formula in Formula (3-1), amino acid sequence (SEQ ID NO: 4) in Formula (3-2) (F[1Nal]VVNVTDD[Gly(NCH2CH2Ph)]V[1Nal]THVCG; bridge (positions not given here); not fully specified (bridges))”, in assay [5], the “organoid formation efficiency compared with A83-01” value is recorded as “organoids can be formed with an efficiency equal to or higher than that in a case where A83-01 was added”.

“#7401 peptide: cyclic peptide, chemical formula in Formula (2-1), amino acid sequence (SEQ ID NO: 3) in Formula (2-2) (F[1Nal]VVNV[4Pal]DD[Gly(NCH2CH2Ph)]V[1Nal]THK(X1)CG; bridge (positions not given here); not fully specified (bridges))”: the “organoid formation efficiency compared with A83-01” value in assay [5] is listed as “organoids can be formed with an efficiency equal to or higher than that in a case where A83-01 was added”. The proliferation of cells entry in assay [1] (50 nM in the culture medium, FIG. 3) is on record as “cells can sufficiently proliferate”.
